Measured values from article PMC4718634, “Murine GPRC6A Mediates Cellular Responses to L-Amino Acids, but Not Osteocalcin Variants” (PLoS ONE, 2016).

Columns and labels:
[1] = system: immortalised cell lines (e.g. pancreatic β-cells); conditions: ref [12], cited from earlier work
Source text: (§1) Additional interest in GPRC6A has emerged due to several studies reporting that it mediates the metabolic and endocrine effects of the de-carboxylated form of the osteoblast-derived peptide, osteocalcin (OCN). […] By examining cell signalling events downstream of recombinantly expressed mouse GPRC6A and phenotypic assays in cell lines endogenously expressing the Gprc6a transcript, we confirmed that GPRC6A is a receptor for basic L-amino acids, but were unable to detect any effect of OCN variants, irrespective of peptide species or source. GPRC6A has emerged in recent years as an interesting target due to its putative role in med ...

mice = conditions: [21], cited from earlier work
Source text: as §1

immortalised cell lines = conditions: blocked by siRNA targeting Gprc6a; ref [12], [22]; cited from earlier work
Source text: Additional interest in GPRC6A has emerged due to several studies reporting that it mediates the metabolic and endocrine effects of the de-carboxylated form of the osteoblast-derived peptide, osteocalcin (OCN).

pancreatic islets = conditions: GPRC6A-dependent; ref [31]; cited from earlier work
Source text: (§2) Given the range of OCN variants profiled, we propose that species and/or carboxylation status is unlikely to be a cause of the lack of activity in our assays. Other potential explanations are that the species of GPRC6A is critical or that HEK293 cells lack the necessary scaffolding and/or signalling proteins found in cells endogenously expressing GPRC6A. Unfortunately, human GPRC6A was not expressed at the cell surface in our cells, precluding a study of its pharmacology. However, we identified a range of immortalised murine entero-endocrine and pancreatic β-cell lines that express Gprc6a mRNA ...

βTC-6 cells = conditions: GPRC6A-dependent; ref [12]; cited from earlier work
Source text: as §2

mGPRC6A (mouse GPRC6A) = molecular target: T1, mGPRC6A (mouse GPRC6A) (Mus musculus, UniProt Q8K4Z6); test: Cyclic AMP accumulation, HEK293-pIRES-puro6-mGPRC6A cells; assay type: cell-based; conditions: pIRES-puro6 higher-expressing line, S2 Fig
T1 sequence (Q8K4Z6 21-928): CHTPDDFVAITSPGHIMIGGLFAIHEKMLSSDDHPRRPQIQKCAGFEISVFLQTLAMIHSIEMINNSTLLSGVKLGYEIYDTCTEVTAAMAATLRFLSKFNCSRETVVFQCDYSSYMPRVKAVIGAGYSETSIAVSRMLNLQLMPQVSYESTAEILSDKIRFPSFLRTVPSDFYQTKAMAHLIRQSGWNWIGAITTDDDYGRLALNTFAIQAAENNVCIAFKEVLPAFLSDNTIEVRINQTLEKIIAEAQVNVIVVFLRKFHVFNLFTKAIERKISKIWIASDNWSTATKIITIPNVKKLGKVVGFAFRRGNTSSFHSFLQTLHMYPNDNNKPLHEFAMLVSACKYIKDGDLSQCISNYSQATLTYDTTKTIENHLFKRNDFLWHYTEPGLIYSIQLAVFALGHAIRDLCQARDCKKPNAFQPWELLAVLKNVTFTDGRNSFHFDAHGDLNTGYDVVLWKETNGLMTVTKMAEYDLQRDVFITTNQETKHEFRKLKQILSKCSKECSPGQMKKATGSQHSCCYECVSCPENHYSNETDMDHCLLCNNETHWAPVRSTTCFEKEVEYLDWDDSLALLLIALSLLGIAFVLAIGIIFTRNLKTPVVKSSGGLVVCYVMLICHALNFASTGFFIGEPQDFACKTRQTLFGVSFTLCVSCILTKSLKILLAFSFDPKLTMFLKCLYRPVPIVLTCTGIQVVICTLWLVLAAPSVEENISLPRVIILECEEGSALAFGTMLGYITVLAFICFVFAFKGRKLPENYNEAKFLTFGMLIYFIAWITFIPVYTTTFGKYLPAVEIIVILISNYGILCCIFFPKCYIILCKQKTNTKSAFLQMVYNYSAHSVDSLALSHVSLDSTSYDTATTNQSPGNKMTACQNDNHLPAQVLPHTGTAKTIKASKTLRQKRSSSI
Method: pcDNA 5/FRT/TO constructs were isogenically integrated into a FlpIn-TREx-HEK293 cell line (Life Technologies). FlpIn-TREx-HEK293-mGPRC6A and FlpIn-TREx-HEK293-hGPRC6A cells were then selected using 600 μg/ml hygromycin and 5 μg/ml blasticidin and grown in culture medium consisting of Dulbecco’s Modified Eagle Medium (DMEM), supplemented with 10% (v/v) foetal bovine serum (FBS) at 37°C in 5% CO2 and were sub-cultured in a 1:3 ratio every 3–4 days. Cells were cultured overnight in the presence of 1 μg/ml tetracycline to induce GPRC6A expression. […] 48 h after transfection, cells were selected using 3 μg/ml puromycin and grown as above.
HEK293-mGPRC6A cells were seeded at a density of 10^5 cells per well into PDL-coated 96-well plates and incubated overnight in DMEM, supplemented with 10% FBS (v/v) at 37°C in 5% CO2. Cells were then incubated in 90 μl of stimulation buffer (HBSS containing 5 mM HEPES, 0.1% BSA (w/v), 0.5 mM IBMX; pH 7.4) for 30 min at 37°C. Test compounds (10 μl at 10 x final) were added and cells were incubated for an additional 30 min at 37°C. The medium was removed and cells were incubated in 50 μl of ice-cold 100% ethanol. […] Samples were analysed using the Alphascreen® cAMP assay kit (Perkin Elmer) following manufacturer instructions. […] After overnight (16 h) incubation at RT, plates were read using the Envision plate reader.

Row | Molecule | insulin release ([1]; blocked by siRNA targeting Gprc6a, [22]) | insulin secretion in vitro and ex vivo ([1]; [20], [21]) | β-cell proliferation, insulin release, insulin sensitivity, energy expenditure, testosterone synthesis (mice; mice, ref [20]) | β-cell proliferation, insulin sensitivity, energy expenditure (mice; ref [12], [20]) | GLP-1 release (immortalised cell lines) | insulin secretion (pancreatic islets) | ERK1/2 phosphorylation (βTC-6 cells) | inhibition of forskolin-stimulated cAMP (mGPRC6A (mouse GPRC6A); forskolin 3 μM) | stimulation of cAMP accumulation (mGPRC6A (mouse GPRC6A))
1 | OCN: osteoblast-derived peptide, osteocalcin; variant not specified at the place (YLYQWLGAPVPYPDPLEPRREVCELNPDCDELADHIGFQEAYRRFYGPV; UniProt P02818 52-100, looked up) | OCN-mediated insulin and glucagon-like peptide (GLP)-1 release | promoting insulin secretion in vitro and ex vivo | increase pancreatic β-cell proliferation, insulin release from pancreatic islets, insulin sensitivity and energy expenditure and testosterone synthesis in the gonads in mice | can increase pancreatic β-cell proliferation, insulin sensitivity and energy expenditure in vivo | OCN-mediated insulin and glucagon-like peptide (GLP)-1 release | increase insulin secretion from pancreatic islets | engender ERK1/2 phosphorylation | – | –
2 | NCCC[C@H](N)C(=O)O [L-ornithine] | – | – | – | – | – | – | – | none of the ligands inhibit | Neither L-ornithine nor OCN variants stimulate cAMP accumulation
